Earlier results, collected in patent US12629369B2, “Pharmaceutical compositions of nilotinib” (AZURITY PHARMACEUTICALS, INC., priority 2019, dated 2026).
Counter-ions that a name gives are not always drawn.

Assays:
[1] = taken with or after meals, particularly high fat meals (Castagnetti et al 2008)

SMILES | water solubility | solubility in aqueous solutions (25° C., pH 4.5 and higher) | increase of extent of absorption (area under the plasma profile curve) [1] [%] | increase of rate of absorption (Cmax) [1] [%]
Cc1cn(-c2cc(NC(=O)c3ccc(C)c(Nc4nccc(-c5cccnc5)n4)c3)cc(C(F)(F)F)c2)cn1 [Nilotinib hydrochloride] | poorly water soluble |  |  | 
Cc1cn(-c2cc(NC(=O)c3ccc(C)c(Nc4nccc(-c5cccnc5)n4)c3)cc(C(F)(F)F)c2)cn1 [Nilotinib, 4-methyl-N-[3-(4-methyl-1H-imidazol-1-yl)-5-(trifluoromethyl)phenyl]-3-[[4-(3-pyridinyl)-2-pyrimidinyl]amino]-benzamide] |  | practically insoluble | 82 | 112
